Usually MIC50 stands for an inhibitory concentration at the 50% level, which refers to growth in some studies and to a panel of isolates in others. Low values mean higher susceptibility, high ones lower susceptibility.

The values that follow come from PMC6152416, “Pharmacological and Toxicological Screening of Novel Benzimidazole-Morpholine Derivatives as Dual-Acting Inhibitors” (Molecules : A Journal of Synthetic Chemistry and Natural …, 2017).

Converted amounts (≈) assume the structure as drawn.

The test system of the test is Pseudomona aeuroginosa ATCC 27853. Kind of test: Antimicrobial broth microdilution (CLSI M07-A9). In kind it is cell-based. The note with it: Pseudomona aeuroginosa [sic] ATCC 27853. The protocol:
Microbiological studies were performed according to CLSI reference M07-A9 broth microdilution method for bacterial strains and EUCAST definitive method EDef 7.1 for Candida species. Synthesized compounds were tested for their in vitro growth inhibitory activity against Escherichia coli ATCC 35218, Escherichia coli ATCC 25922, Staphylococcus aureus, ATCC 25923, Pseudomona aeuroginosa ATCC 27853, Enterococcus faecalis ATCC29212, Klebsiella pneumoniae ATCC700603 Listeria monocytogenes ATCC7644, Candida albicans ATCC90028, Candida glabrata ATCC 90030, Candida krusei ATCC 6258, Candida parapsilosis ATCC 22019.
The cultures were obtained from Mueller-Hinton broth (Difco) for the bacterial strains and the yeasts were maintained in Roswell Park Memorial Institute (RPMI) medium, after an overnight incubation at 37 °C for both. The inocula of the test microorganisms were adjusted to match an equivalent turbidity of a 0.5 McFarland standard, which was determined using a spectrophotometer; the final inoculum size was determined to be 0.5–2.5 × 10^5 cfu/mL for antibacterial and antifungal assays. The tests were carried out for both mediums at pH = 7 and two-fold serial dilutions were applied. The last well on the microplates, which was containing only the inoculated broth, was kept as control, and the last well with no growth of microorganism was recorded to represent the minimum inhibitory concentration (MIC50) in μg/mL. For both of the antibacterial and antifungal assays, the test compounds and reference drugs were firstly dissolved in DMSO, and further dilutions were performed to the desired concentrations of 1000, 500, 250, 125, 62.5, 31.25, 15.6, 7.8, 3.9 and 1.95 μg/mL using Mueller–Hinton broth and RPMI medium. The completed plates were incubated for 24 h, and at the end of the incubation, resazurin (20 µg/mL) was added into each well to control the growth in the wells. Final plates including microorganism strains were incubated for 2 h. MIC50 values were determined using microplate reader at […] wavelengths; MIC50 readings were performed twice for entire compounds. Chloramphenicol and ketoconazole were used as reference drugs.

As for `O=C(N[C@H](CO)[C@H](O)c1ccc([N+](=O)[O-])cc1)C(Cl)Cl` [Chloramphenicol, reference compound], the MIC50 was 250 µg/mL (≈ 774 µM).
